Experimental data taken from ChEMBL document CHEMBL3739415, “Synthesis of functionalized new conjugates of batracylin with tuftsin/retro-tuftsin derivatives and their biological evaluation” (Eur J Med Chem, 2015).
Active and inactive are the calls of the source. The rule behind the calls is not given here. Non-standard residues stand in square brackets, D forms with d. Residues, ends and D or L forms follow the SMILES beside them. *: point of attachment. Batracylin(8-NH) = O=C1c2ccccc2C2=Nc3ccc(N*)cc3CN12; Arg(NO2) = N=C(NCCC[C@H](N)C(=O)O)N[N+](=O)[O-]

Key:
A549 [1] = assay: Cytotoxicity against human A549 cells after 120 hrs by MTT assay; format: functional, cell-based; settings: A549, 120 h
[2] = Cytotoxicity against human HL60 cells after 120 hrs by MTT assay; format: functional, cell-based; settings: HL-60, 120 h
[3] = biological target: DNA topoisomerase 2-alpha (Homo sapiens) (UniProt P11388); assay: Inhibition of human topoisomerase-2alpha-mediated relaxation of supercoiled plasmid pBR322 DNA after 30 mins by ethidium bromide staining
Sequence of DNA topoisomerase 2-alpha (Homo sapiens) (P11388 whole entry): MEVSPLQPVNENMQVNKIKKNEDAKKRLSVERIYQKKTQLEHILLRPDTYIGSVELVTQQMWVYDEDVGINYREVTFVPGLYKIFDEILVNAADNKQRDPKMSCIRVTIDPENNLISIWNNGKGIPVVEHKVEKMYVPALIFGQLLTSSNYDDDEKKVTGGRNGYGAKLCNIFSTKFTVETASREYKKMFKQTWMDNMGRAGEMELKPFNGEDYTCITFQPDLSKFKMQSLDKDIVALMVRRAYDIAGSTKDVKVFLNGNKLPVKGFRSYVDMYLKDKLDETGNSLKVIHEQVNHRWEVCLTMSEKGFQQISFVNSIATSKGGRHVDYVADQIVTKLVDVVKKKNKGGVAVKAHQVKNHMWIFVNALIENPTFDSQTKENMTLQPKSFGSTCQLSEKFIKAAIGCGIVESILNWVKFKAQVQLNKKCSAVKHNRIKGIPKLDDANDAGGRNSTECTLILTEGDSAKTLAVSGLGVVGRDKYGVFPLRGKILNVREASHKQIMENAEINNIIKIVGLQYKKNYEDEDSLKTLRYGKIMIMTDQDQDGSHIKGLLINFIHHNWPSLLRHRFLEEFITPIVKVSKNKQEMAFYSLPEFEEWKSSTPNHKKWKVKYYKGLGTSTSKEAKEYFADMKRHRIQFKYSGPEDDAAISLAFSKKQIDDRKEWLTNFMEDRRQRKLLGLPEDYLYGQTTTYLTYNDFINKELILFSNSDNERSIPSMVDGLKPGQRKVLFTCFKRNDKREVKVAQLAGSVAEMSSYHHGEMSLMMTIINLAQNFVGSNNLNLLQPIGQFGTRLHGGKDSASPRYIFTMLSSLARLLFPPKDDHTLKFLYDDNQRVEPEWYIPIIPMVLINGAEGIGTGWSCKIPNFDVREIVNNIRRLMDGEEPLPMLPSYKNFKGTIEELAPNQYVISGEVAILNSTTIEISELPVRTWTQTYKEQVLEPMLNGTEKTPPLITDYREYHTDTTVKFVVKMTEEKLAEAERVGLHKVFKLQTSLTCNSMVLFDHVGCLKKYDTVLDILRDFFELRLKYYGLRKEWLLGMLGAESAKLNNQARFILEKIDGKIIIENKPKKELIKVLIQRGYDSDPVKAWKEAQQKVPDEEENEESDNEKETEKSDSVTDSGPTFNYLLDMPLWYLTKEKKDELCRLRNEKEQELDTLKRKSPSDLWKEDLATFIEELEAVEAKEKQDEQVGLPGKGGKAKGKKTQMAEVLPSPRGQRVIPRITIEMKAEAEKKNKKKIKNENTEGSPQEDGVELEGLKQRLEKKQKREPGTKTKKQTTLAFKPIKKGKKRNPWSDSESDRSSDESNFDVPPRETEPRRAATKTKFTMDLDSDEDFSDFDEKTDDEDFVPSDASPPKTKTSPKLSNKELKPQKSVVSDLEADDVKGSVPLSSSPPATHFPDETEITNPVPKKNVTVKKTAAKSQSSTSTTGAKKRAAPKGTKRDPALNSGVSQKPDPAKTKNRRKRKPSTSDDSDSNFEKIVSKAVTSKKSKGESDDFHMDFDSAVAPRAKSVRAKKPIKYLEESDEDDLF

[4] = biological target: T1, DNA topoisomerase 1 (Homo sapiens) (UniProt P11387); assay: Inhibition of human topoisomerase-1-mediated relaxation of supercoiled plasmid pBR322 DNA at 1 to 100 uM after 30 mins by ethidium bromide staining
T1 sequence (whole entry): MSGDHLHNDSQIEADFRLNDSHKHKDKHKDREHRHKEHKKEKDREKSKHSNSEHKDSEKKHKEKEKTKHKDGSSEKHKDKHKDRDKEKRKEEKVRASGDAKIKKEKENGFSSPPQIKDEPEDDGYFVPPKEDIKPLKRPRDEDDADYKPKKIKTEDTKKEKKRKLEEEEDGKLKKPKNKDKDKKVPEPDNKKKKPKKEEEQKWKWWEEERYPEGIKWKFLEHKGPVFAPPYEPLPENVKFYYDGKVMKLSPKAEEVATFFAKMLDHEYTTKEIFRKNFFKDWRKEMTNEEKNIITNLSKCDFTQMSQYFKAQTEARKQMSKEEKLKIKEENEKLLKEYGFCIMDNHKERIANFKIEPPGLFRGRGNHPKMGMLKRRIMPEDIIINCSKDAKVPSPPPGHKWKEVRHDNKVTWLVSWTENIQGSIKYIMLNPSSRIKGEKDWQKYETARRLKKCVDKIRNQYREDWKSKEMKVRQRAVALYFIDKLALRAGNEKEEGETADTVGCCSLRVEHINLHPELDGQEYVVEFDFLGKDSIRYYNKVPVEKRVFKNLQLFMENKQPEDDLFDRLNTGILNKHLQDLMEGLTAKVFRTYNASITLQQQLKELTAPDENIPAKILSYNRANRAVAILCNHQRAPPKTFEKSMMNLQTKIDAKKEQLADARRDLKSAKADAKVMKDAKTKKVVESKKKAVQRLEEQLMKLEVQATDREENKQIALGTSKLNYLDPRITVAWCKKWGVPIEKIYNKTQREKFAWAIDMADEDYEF

[5] = Cell cycle arrest in human HL60 cells assessed as abnormal mitotic figures at IC90 after 24 to 120 hrs using propidium iodide staining by flow cytometry analysis; format: functional, cell-based; settings: HL-60
A549 [6] = assay: Induction of apoptosis in human A549 cells assessed as increase of debris fraction at IC90 up to 120 hrs using Hoechst-33342 staining by fluorescent microscope analysis relative to BAT; format: functional
HL-60 [7] = assay: Induction of apoptosis in human HL60 cells assessed as increase of debris fraction at IC90 up to 120 hrs using Hoechst-33342 staining by fluorescent microscope analysis relative to BAT; format: functional, cell-based
A549 [8] = assay: Induction of DNA damage in human A549 cells assessed as phosphorylation of H2AX histone at IC90 after 3 hrs by fluorescence microscopy; format: functional, cell-based
A549 [9] = assay: Cell cycle arrest in human A549 cells assessed as accumulation at G2/M phase at IC90 after 120 hrs using propidium iodide staining by flow cytometry analysis; format: functional, cell-based
[10] = Cell cycle arrest in human HL60 cells assessed as accumulation at G2/M phase at IC90 after 24 to 120 hrs using propidium iodide staining by flow cytometry analysis; format: functional, cell-based; settings: HL-60
A549 [11] = assay: Induction of apoptosis in human A549 cells assessed as change in nuclear and cellular morphology at IC90 up to 120 hrs using Hoechst-33342 staining by fluorescent microscope analysis; format: functional, cell-based
A549 [12] = assay: Cell cycle arrest in human A549 cells assessed as accumulation at G2/M phase at IC90 after 24 hrs using propidium iodide staining by flow cytometry analysis; format: functional, cell-based
HL-60 [13] = assay: Induction of apoptosis in human HL60 cells assessed as micronucleated cells at IC90 up to 120 hrs using Hoechst-33342 staining by fluorescent microscope analysis relative to BAT; format: functional, cell-based
HL-60 [14] = assay: Induction of apoptosis in human HL60 cells assessed as fraction of polyploid cells at IC90 up to 120 hrs using Hoechst-33342 staining by fluorescent microscope analysis relative to BAT; format: functional, cell-based
A549 [15] = assay: Ratio of BAT IC50 to compound IC50 for human A549 cells after 120 hrs by MTT assay; format: functional
HL-60 [16] = assay: Ratio of BAT IC50 to compound IC50 for human HL60 cells after 120 hrs by MTT assay; format: functional
HT-29 = assay: Cytotoxicity against human HT-29 cells after 120 hrs by MTT assay; format: functional, cell-based; settings: HT-29, 120 h
[17] = Cytotoxicity against mouse WEHI1640 cells after 120 hrs by MTT assay; format: functional, cell-based; settings: WEHI1640, 120 h
MCF7 = assay: Cytotoxicity against human MCF7 cells after 120 hrs by MTT assay; format: functional, cell-based; settings: MCF7, 120 h
LNCaP = assay: Cytotoxicity against human LNCAP cells after 120 hrs by MTT assay; format: functional, cell-based
L1210 = assay: Cytotoxicity against mouse L1210 cells after 120 hrs by MTT assay; format: functional, cell-based; settings: L1210, 120 h
[18] = Cytotoxicity against human HCT116 cells after 120 hrs by MTT assay; format: functional, cell-based; settings: HCT-116, 120 h
P388 = assay: Cytotoxicity against mouse P388 cells after 120 hrs by MTT assay; format: functional, cell-based; settings: P388, 120 h
[19] = Cytotoxicity against mouse NIH/3T3 cells after 120 hrs by MTT assay; format: functional, cell-based; settings: NIH3T3, 120 h

SMILES: C[C@H](N)C(=O)NCCCC[C@H](NC(=O)[C@@H](N)[C@@H](C)O)C(=O)N1CCC[C@H]1C(=O)N[C@@H](CCCNC(=N)N[N+](=O)[O-])C(=O)Nc1ccc2c(c1)CN1C(=O)c3ccccc3C1=N2 (H-TK(Ala)P[Arg(NO2)]-{Batracylin(8-NH)})
- IC50 (A549 [1]): 5.9 µM
- IC50 [2]: 19.6 µM

SMILES: C[C@@H](O)[C@H](N)C(=O)N[C@@H](CCCCNC(=O)CN)C(=O)N1CCC[C@H]1C(=O)N[C@@H](CCCNC(=N)N[N+](=O)[O-])C(=O)Nc1ccc2c(c1)CN1C(=O)c3ccccc3C1=N2 (H-TK(Gly)P[Arg(NO2)]-{Batracylin(8-NH)})
- IC50 (A549 [1]): > 100 µM
- IC50 [2]: > 100 µM

SMILES: CC[C@H](C)[C@H](N)C(=O)NCCCC[C@H](NC(=O)[C@@H](N)[C@@H](C)O)C(=O)N1CCC[C@H]1C(=O)N[C@@H](CCCNC(=N)N[N+](=O)[O-])C(=O)Nc1ccc2c(c1)CN1C(=O)c3ccccc3C1=N2 (H-TK(Ile)P[Arg(NO2)]-{Batracylin(8-NH)})
- IC50 (A549 [1]): 17.4 µM
- inhibition [3]: Dose-dependent effect
- inhibition [4]: inactive
- IC50 [2]: 15.4 µM

SMILES: CC(C)C[C@H](N)C(=O)NCCCC[C@H](NC(=O)[C@@H](N)[C@@H](C)O)C(=O)N1CCC[C@H]1C(=O)N[C@@H](CCCNC(=N)N[N+](=O)[O-])C(=O)Nc1ccc2c(c1)CN1C(=O)c3ccccc3C1=N2 (H-TK(Leu)P[Arg(NO2)]-{Batracylin(8-NH)})
- IC50 (A549 [1]): > 100 µM
- inhibition [3]: Dose-dependent effect
- inhibition [4]: inactive
- IC50 [2]: 83.7 µM

SMILES: CC(C)[C@H](N)C(=O)NCCCC[C@H](NC(=O)[C@@H](N)[C@@H](C)O)C(=O)N1CCC[C@H]1C(=O)N[C@@H](CCCNC(=N)N[N+](=O)[O-])C(=O)Nc1ccc2c(c1)CN1C(=O)c3ccccc3C1=N2 (H-TK(Val)P[Arg(NO2)]-{Batracylin(8-NH)})
- IC50 (A549 [1]): > 100 µM
- IC50 [2]: > 100 µM

SMILES: C[C@@H](O)[C@H](N)C(=O)N[C@@H](CCCCN)C(=O)N1CCC[C@H]1C(=O)N[C@@H](CCCNC(=N)N[N+](=O)[O-])C(=O)Nc1ccc2c(c1)CN1C(=O)c3ccccc3C1=N2 (H-TKP[Arg(NO2)]-{Batracylin(8-NH)})
- Activity [5]: Active
- IC50 (A549 [1]): 52.8 µM
- fold change (FC) (A549 [6]): 3.5
- Activity (HL-60 [7]): Active
- Activity (A549 [8]): Active
- Activity (A549 [9]): Active
- Activity [10]: inactive
- Activity (A549 [11]): inactive
- Activity (A549 [12]): Active
- Activity (HL-60 [13]): Active
- IC50 [2]: 77.3 µM
- Activity (HL-60 [14]): Active

SMILES: C[C@H](N)C(=O)NCCCC[C@H](NC(=O)[C@@H]1CCCN1C(=O)[C@@H](N)CCCNC(=N)N[N+](=O)[O-])C(=O)N[C@H](C(=O)Nc1ccc2c(c1)CN1C(=O)c3ccccc3C1=N2)[C@@H](C)O (H-[Arg(NO2)]PK(Ala)T-{Batracylin(8-NH)})
- IC50 (A549 [1]): 5.6 µM
- IC50 [2]: 11.1 µM

SMILES: C[C@@H](O)[C@H](NC(=O)[C@H](CCCCNC(=O)CN)NC(=O)[C@@H]1CCCN1C(=O)[C@@H](N)CCCNC(=N)N[N+](=O)[O-])C(=O)Nc1ccc2c(c1)CN1C(=O)c3ccccc3C1=N2 (H-[Arg(NO2)]PK(Gly)T-{Batracylin(8-NH)})
- IC50 (A549 [1]): > 100 µM
- IC50 [2]: 28.7 µM

SMILES: CC[C@H](C)[C@H](N)C(=O)NCCCC[C@H](NC(=O)[C@@H]1CCCN1C(=O)[C@@H](N)CCCNC(=N)N[N+](=O)[O-])C(=O)N[C@H](C(=O)Nc1ccc2c(c1)CN1C(=O)c3ccccc3C1=N2)[C@@H](C)O (H-[Arg(NO2)]PK(Ile)T-{Batracylin(8-NH)})
- Ratio IC50 (A549 [15]): >=10
- IC50 (A549 [1]): 4.8 µM
- inhibition [3]: Dose-dependent effect
- Ratio IC50 (HL-60 [16]): >=10
- inhibition [4]: inactive
- IC50 [2]: 4.7 µM

SMILES: CC(C)C[C@H](N)C(=O)NCCCC[C@H](NC(=O)[C@@H]1CCCN1C(=O)[C@@H](N)CCCNC(=N)N[N+](=O)[O-])C(=O)N[C@H](C(=O)Nc1ccc2c(c1)CN1C(=O)c3ccccc3C1=N2)[C@@H](C)O (H-[Arg(NO2)]PK(Leu)T-{Batracylin(8-NH)})
- Ratio IC50 (A549 [15]): >=10
- Activity [5]: Active
- IC50 (A549 [1]): 4 µM
- inhibition [3]: Dose-dependent effect
- Activity (HL-60 [7]): Active
- Activity (A549 [8]): Active
- Activity (A549 [9]): Active
- Activity [10]: inactive
- Activity (A549 [11]): inactive
- Activity (A549 [12]): Active
- Ratio IC50 (HL-60 [16]): >=10
- inhibition [4]: inactive
- Activity (HL-60 [13]): Active
- IC50 [2]: 5.3 µM
- Activity (HL-60 [14]): Active

SMILES: CC(C)[C@H](N)C(=O)NCCCC[C@H](NC(=O)[C@@H]1CCCN1C(=O)[C@@H](N)CCCNC(=N)N[N+](=O)[O-])C(=O)N[C@H](C(=O)Nc1ccc2c(c1)CN1C(=O)c3ccccc3C1=N2)[C@@H](C)O (H-[Arg(NO2)]PK(Val)T-{Batracylin(8-NH)})
- IC50 (A549 [1]): 13.1 µM
- IC50 [2]: 11 µM

SMILES: C[C@@H](O)[C@H](NC(=O)[C@H](CCCCN)NC(=O)[C@@H]1CCCN1C(=O)[C@@H](N)CCCNC(=N)N[N+](=O)[O-])C(=O)Nc1ccc2c(c1)CN1C(=O)c3ccccc3C1=N2 (H-[Arg(NO2)]PKT-{Batracylin(8-NH)})
- Ratio IC50 (A549 [15]): 5
- IC50 (A549 [1]): 8.7 µM
- Ratio IC50 (HL-60 [16]): 2
- IC50 [2]: 30.8 µM

SMILES: Nc1ccc2c(c1)CN1C(=O)c3ccccc3C1=N2 [DANIQUIDONE]
- IC50 (HT-29): 64.3 µM
- Activity [5]: Active
- IC50 [17]: 58.4 µM
- IC50 (A549 [1]): 46.3 µM
- inhibition [3]: Dose-dependent effect
- Activity (HL-60 [7]): Active
- Activity (A549 [8]): Active
- Activity (A549 [9]): Active
- Activity [10]: inactive
- IC50 (MCF7): > 100 µM
- Activity (A549 [11]): inactive
- IC50 (LNCaP): 90.2 µM
- IC50 (L1210): > 100 µM
- IC50 [18]: 88.7 µM
- Activity (A549 [12]): Active
- inhibition [4]: inactive
- IC50 (P388): > 100 µM
- Activity (HL-60 [13]): Active
- IC50 [19]: 69.9 µM
- IC50 [2]: 66.6 µM
- Activity (HL-60 [14]): Active
